Laboratory results taken from PubChem BioAssay (NCI).
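Assay format: 96-well plates, 48-hour exposure. Definition used: TGI = concentration required for complete inhibition of growth.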

Legend:
Test in all cases: growth of human tumour cells (NCI), 48 h
MALME-3M melanoma = system: MALME-3M melanoma
ACHN renal = system: ACHN renal
LOX IMVI melanoma = system: LOX IMVI melanoma
RPMI-8226 leukemia = system: RPMI-8226 leukemia
HT29 colon = system: HT29 colon
UACC-257 melanoma = system: UACC-257 melanoma
NCI-H23 lung = system: NCI-H23 lung
CAKI-1 renal = system: CAKI-1 renal
OVCAR-5 ovarian = system: OVCAR-5 ovarian
NCI-H226 lung = system: NCI-H226 lung

Row | SMILES | TGI (MALME-3M melanoma) [µM] | TGI (ACHN renal) [µM] | TGI (LOX IMVI melanoma) [µM] | TGI (RPMI-8226 leukemia) [µM] | TGI (HT29 colon) [µM] | TGI (UACC-257 melanoma) [µM] | TGI (NCI-H23 lung) [µM] | TGI (CAKI-1 renal) [µM] | TGI (OVCAR-5 ovarian) [µM] | TGI (NCI-H226 lung) [µM]
1 | O=C(Nn1c(-c2ccccc2)nc2ccccc2c1=O)c1ccccn1 | > 100 | > 100 | > 100 | > 100 | > 100 | > 100 | > 100 |  |  | 
2 | OCC1OC(n2cnc3cccnc32)CC1O (stereo not drawn) |  | > 100 | > 100 |  | > 100 | > 100 | > 100 | > 100 | > 100 | > 100
3 | NC(N)=N/N=C/c1c(-c2ccc([N+](=O)[O-])cc2)nc2sccn12 |  | 7.27 |  | 28.3 | 2.95 | 3.65 | 3.46 | 6.93 | 3.11 | 
4 | C=CCC(CNC(=O)OCc1ccccc1)O[Si](C)(C)C(C)(C)C (stereo not drawn) |  | > 100 | 47.1 | 64.9 | 59.1 | 83.7 | > 100 | > 100 | 71.6 | 85.8
5 | Cc1cc(S(=O)(=O)Nc2nnc3c(C(F)(F)F)cc(Cl)cn23)c(S)cc1Cl | > 100 | > 100 | > 100 | > 100 | > 100 | > 100 |  | > 100 | > 100 | > 100
6 | O=C(c1ccc2ccccc2c1)C1S(=O)(=O)OCCOS1(=O)=O | > 100 | > 100 | > 100 | > 100 | > 100 | > 100 | > 100 | > 100 | > 100 | 
7 | CC(C)CCC[C@@H](C)[C@H]1CC[C@H]2[C@@H]3CC=C4C[C@@H](OC(=O)c5cccc6c(=O)c7ccccc7[nH]c56)CC[C@]4(C)[C@H]3CC[C@]12C | > 75 | > 75 | > 75 | > 75 | > 75 | > 75 | > 75 |  | > 75 | > 75
8 | O=C(C1=C(C(=O)c2ccccc2)SC2(S1)C(C(=O)c1ccccc1)=C(C(=O)c1ccccc1)Sc1c2ssc1=O)c1ccccc1 | > 100 | > 100 | > 100 |  | > 100 | > 100 | > 100 | > 100 | 59.2 | 55
9 | CC(=O)NC1C(CO)O[C@@H]2OC(C)(C)O[C@H]12 (stereo partly drawn) | > 100 | > 100 | > 100 | > 100 | > 100 | > 100 | > 100 | > 100 | > 100 | 
10 | CCCCC[C@@H]1OCO[C@@]2(C)/C=C(C)/C=C/C(=O)O[C@H]([C@@H](C)[C@@H](O)[C@H](C)[C@@]3(O)C[C@@H](O[C@H]4C[C@@H](O)[C@H](O)[C@@H](C)O4)[C@H](C)[C@@H](C)O3)[C@@H](OC)/C=C/C=C(\C)C[C@@H]1[C@@H]2O (stereo in doubt) | 0.308 | 1.33 |  | 50 | 0.0544 | < 0.005 | 11.5 | 2.69 | 0.215 | 0.0468
11 | C/C(O)=C(\C=N\C(N)=S)C(=O)Nc1ccccc1C |  | > 100 | > 100 | > 100 | > 100 | > 100 | > 100 | > 100 | > 100 | > 100
12 | O=S1(=O)NNC(=NCc2ccc(Cl)cc2)c2ccccc21 | > 100 | > 100 | > 100 | > 100 | > 100 | > 100 |  | > 100 | > 100 | > 100
13 | CN=C(Nn1cnnc1)OC | > 100 | > 100 |  | > 100 | > 100 | > 100 | > 100 | > 100 | > 100 | 
14 | CN1CCn2c(Br)ccc2C1=O | > 100 | > 100 | > 100 | > 100 | > 100 | > 100 | > 100 | > 100 |  | > 100
15 | O=C(c1ccccc1)c1c(C(F)(F)F)n([O-])c2ccccc2[n+]1=O |  |  | > 100 | 3.34 | 2.23 | 3.5 | 3.71 | 1.94 |  | 
16 | c1ccc(CCN2CCCCCC2)nc1 | > 100 | > 100 | > 100 | > 100 | > 100 |  | > 100 | > 100 | > 100 | > 100
17 | COC(=O)c1sc(=S)sc1SCc1ccccc1CSc1sc(=S)sc1C(=O)OC | > 100 | > 100 | > 100 |  | > 100 | > 100 | > 100 | > 100 | > 100 | > 100
18 | CCCCc1c2c(nc3c1CCc1cc4c(nc1-3)-c1nc3c(c(CCCC)c1CC4)CCC/C3=C\c1ccccc1)/C(=C/c1ccccc1)CCC2 | > 100 |  | > 100 | > 100 | > 100 | > 100 | > 100 | > 100 | > 100 | > 100
19 | CNC(=O)CCC(NC(C)=O)C(=O)NC(Cc1ccc(NC(=O)CCCCC(C)=O)cc1)C(=O)NC(CCC(=O)NC)C(=O)NC (stereo not drawn) | > 100 | > 100 | > 100 | > 100 | > 100 |  | > 100 | > 100 | > 100 | > 100
20 | N#Cc1c(Nc2ccc(F)cc2)[n+]([O-])c2ccc(Cl)cc2[n+]1[O-] | > 100 |  | 4.27 | 9.97 | > 100 | 11.9 | 23.4 | 20.9 |  | 28.8
21 | COc1cc2cc(C(=O)N3CC(CCl)c4c3cc(N)c3ccccc43)[nH]c2cc1OCCN(C)C (stereo not drawn) |  |  |  | 0.408 | 5.17 | 16.8 | 0.00833 | 0.094 | 16.3 | 0.0224
22 | COc1cc(C2C3=C(CCC3=O)Oc3cc4c(cc32)OCO4)cc(OC)c1OC (stereo not drawn) | > 100 | 62.3 | > 100 |  | > 100 | > 100 | > 100 | 30.3 | > 100 | 
23 | CCOC(=O)c1cc2c(OC(C)=O)ccc(OC(C)=O)c2s1 | 3.6 | 2.98 | 3.09 |  | 10.7 | 4.97 | 5.51 | 8.46 | 18.9 | 55
24 | Clc1nc(-[n+]2ccc(-c3ccncc3)cc2)nc(Nc2ccccc2)c1Cl | > 100 | > 100 | > 100 | > 100 | > 100 | > 100 | > 100 |  | > 100 | > 100
